Assay results as given in paper PMC10082216 (Nature Communications, 2023).
Where two headings read alike, the source gives them in different places.

Key:
[1] = cited from earlier work
[2] = test system: mature stage V gametocytes (NF54 strain); assay: microbe, parasite or virus in culture; assay type: cell-based, Plasmodium falciparum
Method: (§1) Screening was conducted as previously described. Briefly, mature stage V gametocytes (NF54 strain) were cultured in vitro, then exposed to the explored compounds and filtered thereafter through layers of microspheres (microsphiltration)[25],[28]. Stiffening activity was determined by comparing gametocytemia up and downstream from the microsphere layers after filtration of drug-exposed gametocytes in 384-well plates using a vacuum manifold. Gametocytemia was assessed using DNA (Sybr Green) and erythrocyte membrane (CellMask) staining. Killing effect was assessed by MitoTracker staining. We screened two small libraries, specifically the Pathogen Box from the Medicine for Malaria Venture and the Kinase Inhibitors Box from GSK (400 and 350 compounds, respectively, Fig. 1A, B), and furthermore the larger ReFrame repurposing library (12,805 compounds, Fig. 1C).
(§2) The Pathogen Box library (400 compounds, provided by MMV-Medicine for Malaria Ventures, Geneva, Switzerland), the Kinase Inhibitors Box library (350 compounds, provided by GSK-Glaxo SmithKline DDW Unit, Tres Cantos, Spain), and the ReFrame library (12,805 compounds provided by the California Institute for Biomedical Research-Calibr, La Jolla, CA, USA) were used according to the providers’ instructions. DMSO-solubilized compounds (10 mM stock concentration) were loaded in 384-well plates (Seahorse, cat. no. 201035−100). Two columns were left empty for the controls. For each compound, 5 nL were pre-spotted in a single well to reach a final concentration of 1.11 μM. The final volume for each well was 45 μl. Controls were prepared as follows: 22.5 nL of DMSO were loaded in 16 wells as negative controls (0.05% final concentration); 22.5 nL of NITD609 (provided by MMV, Geneva, Switzerland) 1 mM were loaded in 8 wells (0.5 μM final concentration), 17 nL of Calyculin A (Sigma, cat. no. C5552) […] were loaded in 6 wells (75 nM final concentration) and 225 nL of Gentian Violet (MolPort, cat. no. 002-133-551) 10 mM were loaded in the remaining 2 wells (50 μM final concentration). Plates were prepared in triplicate for the Pathogen Box and sextuplicate for the Kinase Inhibitors Box.
(§3) Plasmodium falciparum NF54 strain parasites (used for screening campaign) were cultured at 4% hematocrit in RBCs from informed blood donors (blood group A) as previously described. Parasites were taken from the -80 °C freezer, then rapidly melt for 1 minute in a 37 °C water bath. A saline solution was gently added to avoid the lysis. Firstly, NaCl dissolved at 12% in distilled water (1/5 of the volume measured in the cryovial) and then NaCl dissolved at 1.6% (9 times the cryovial’s volume). After that, fresh RBCs were added to allow parasites re-growth. Infected RBCs were kept in RPMI medium (Sigma-Aldrich, cat. no. R4130), supplemented with 10% of decomplemented human serum, hypoxanthine 50 mg/l (Sigma-Aldrich, cat. no. H9636). Biobank of Castilla y Leon and Centro de Transfusiones de Madrid as providers of human red blood cell concentrates. The production of gametocytes was induced from a 0.5% ring-stage parasitemia (day 0). Medium was changed daily to induce gametocytes differentiation, as previously described. At day 17, gametocytes were concentrated using a density gradient medium (NycoPrep 1.077, Progen cat. no. 1114550)[27]. Parasitemia was adjusted by FACS (SYBR-Green and MitoTracker double staining, 3–5% targeted). Hematocrit was adjusted to 0.5% by adding fresh RBCs and controlled by manual counting in a Neubauer chamber (Celeromics, cat. no. 717810). Finally, the gametocyte suspension was poured (45 μL/well) into the compound-containing 384-well microplate, then incubated 24 hours both for the screening campaign and the dose-response analysis. Both asexual and sexual stages were cultivated in RPMI 1640 supplemented with 25 mM HEPES, 50 mg/L hypoxanthine, 50 μg/mL gentami-cin, 10% pooled heat-inactivated human serum (A^+).

[3] = test system: mature stage V gametocytes (NF54 strain); assay: High-throughput screening: killing effect by MitoTracker staining, primary screening at 1.11 µM and dose-response analysis; assay type: cell-based, Plasmodium falciparum; conditions: stage V gametocytes NF54, 24 h, dose-response analysis, N/A = not active in dose-response analysis, read-out: Killing IC50
Method: as §1, §2, §3

[4] = Hit scoring on safety in human subjects and pharmacokinetics; conditions: for Score (PK): peak plasma concentration vs IC50
From the text: Hits from the ReFrame library were further selected based on safety, preferably oral administration (high score if oral), and potential availability for widespread use.

human subjects = conditions: cited from earlier work; for AE (%) / SAE (%): healthy volunteers
P.falciparum Dd2 = test system: P.falciparum Dd2; design: method as in previously published reports (Table S1 legend); conditions: 72 h; results in previous assays; ref previously published reports (Table S1 legend); read-out: 72-h Dd2-SybrGreen PBFS assay IC50; cited from earlier work
HEK293T = conditions: cited from earlier work
HepG2 = conditions: cited from earlier work
[5] = stage V gametocytes NF54, 24 h, dose-response analysis, N/A = not active in dose-response analysis, read-out: Stiffening IC50 (retention)
[6] = Plasmodium falciparum, NF54, 24 h, read-out: Stiffening IC50 (retention)
[7] = read-out: Cellular cytotoxicity assay IC50, HEK293T, 72 h, first value of cell, ref previously published reports (Table S1 legend)
[8] = read-out: Cellular cytotoxicity assay IC50, HepG2, 72 h, second value of cell, ref previously published reports (Table S1 legend)
[9] = 90 mg single dose in combination with sofosbuvir 400 mg, ref CTR20160149
[10] = healthy volunteers, 90 mg single dose in combination with sofosbuvir 400 mg, ref CTR20160149
[11] = 50 mg single dose, ref NCT01937975
[12] = healthy volunteers, 50 mg single dose, ref NCT01937975
[13] = Plasmodium falciparum, NF54, 24 h
[14] = 100 mg single dose in combination with sofosbuvir 400 mg, ref CTR20160602
[15] = healthy volunteers, 100 mg single dose in combination with sofosbuvir 400 mg, ref CTR20160602

## COC(=O)N[C@H](C(=O)N1CCC[C@H]1C(=O)Nc1ccc([C@@H]2CC[C@@H](c3ccc(NC(=O)[C@@H]4CCCN4C(=O)[C@@H](NC(=O)OC)C(C)C)cc3)N2c2ccc(C(C)(C)C)cc2)cc1)C(C)C [Ombitasvir]
[1]; human, in vivo
  t1/2: 21 to 25 h

## COC(=O)N[C@H](C(=O)N1CCC[C@H]1c1nc(-c2ccc(-c3ccc(-c4c[nH]c([C@@H]5CCCN5C(=O)[C@@H](NC(=O)OC)C(C)C)n4)cc3)cc2)c[nH]1)C(C)C [Daclatasvir]
[1]; human, in vivo, 30 mg
  Cmax: 945 nM
  t1/2: 12.4 h

## CCN(CC)Cc1ccc2cc(COC(=O)Nc3ccc(C(=O)NO)cc3)ccc2c1.Cl.O [Givinostat hydrochloride]
[2]; [5]
  IC50: 1400 nM
[3]
  IC50: 2100 nM
[4]
  Score (safety): 0
  Score (PK): 0
Human subjects; human, in vivo
  patients with significant adverse events: more than 15%

## C[C@@H]1O[C@@H](O[C@@H]2C=C3CC[C@@H]4[C@H](CC[C@]5(C)[C@@H](c6ccc(=O)oc6)CC[C@]45O)[C@@]3(C)CC2)[C@H](O)[C@H](O)[C@H]1O [Proscillaridin]
[2]; [6]
  IC50: 80 nM
[3]; Plasmodium falciparum
  IC50: 300 nM
[4]; human
  Score (safety): 0
[4]
  Score (PK): 0
P.falciparum Dd2
  IC50: 9950 nM
HEK293T; [7]
  IC50: 9 nM
HepG2; [8]
  IC50: 14 nM

## COC(=O)N[C@H](C(=O)N1CC2(CC2)C[C@H]1c1ncc(-c2ccc3c(c2)C(F)(F)c2cc(-c4ccc5nc([C@@H]6[C@H]7CC[C@H](C7)N6C(=O)[C@@H](NC(=O)OC)C(C)C)[nH]c5c4)ccc2-3)[nH]1)C(C)C [Ledipasvir]
Human subjects
  safety in pregnant women: can be safely administered to pregnant women
Human subjects; [9]
  AE (%): 42.9%
  SAE (%): 0%
[1]; [10]
  Cmax: 362 nM
  t1/2: 39.9 h

## COC(=O)N[C@H](C(=O)N1CCC[C@H]1c1nc(-c2ccc3c(c2)O[C@@H](c2ccccc2)n2c-3cc3cc(-c4c[nH]c([C@@H]5CCCN5C(=O)[C@@H](NC(=O)OC)C(C)C)n4)ccc32)c[nH]1)C(C)C [Elbasvir]
Human subjects; [11]
  AE (%): 37.5%
  SAE (%): 0%
[1]; [12]
  Cmax: 163 nM
  t1/2: 25 h

## CCCCCCCCN=c1ccn(CCCCCCCC)cc1 [Pirtenidine]
[2]; [5]
  IC50: 3650 nM
[3]
  IC50: 2780 nM
[4]
  Score (safety): 0
  Score (PK): 0
P.falciparum Dd2
  IC50: 615 nM
HEK293T
  IC50: 1480 nM
HepG2
  IC50: 285 nM

## CS(=O)(=O)c1ccc(-c2cnc(N)c(-c3ccc(C(F)(F)F)nc3)c2)cc1 [MMV-390048]
[2]; [6]
  IC50: 3500 nM
[2]; Plasmodium falciparum, NF54, read-out: IC50 (killing and stiffening, given as range)
  IC50: 3500 to 3900 nM
[3]; [13]
  IC50: 3860 nM
[3]
  IC50: 3900 nM
[4]
  Score (safety): 3
  Score (PK): 2 (Peak plasma concentration between 1/3 IC50 and IC50 (Score = 2))
P.falciparum Dd2
  IC50: 229 nM
[1]; humans, highest 120 mg dose, ref 37 (McCarthy et al 2020)
  serum peak concentration: 2.8 µM

## COC[C@H]1C[C@@H](c2ncc(-c3ccc4c(c3)COc3cc5c(ccc6nc([C@@H]7CC[C@H](C)N7C(=O)[C@@H](NC(=O)OC)C(C)C)[nH]c65)cc3-4)[nH]2)N(C(=O)[C@H](NC(=O)OC)c2ccccc2)C1 [Velpatasvir]
Human subjects; [14]
  AE (%): 42.9%
  SAE (%): 0%
[1]; [15]
  Cmax: 584 nM
  t1/2: 16.8 h

## N=C(N)c1ccc(C=C2c3ccccc3-c3ccccc32)cc1 [Paranyline]
[2]; [6]
  IC50: 3200 nM
[3]; [13]
  IC50: 1900 nM
[4]
  Score (safety): 0
  Score (PK): 0
P.falciparum Dd2
  IC50: 1870 nM
HEK293T; [7]
  IC50: 1420 nM
HepG2; [8]
  IC50: 650 nM

## COc1ccc(-c2nc(N3CCOCC3)c3sc(CN(C)c4ncc(C(=O)NO)cn4)cc3n2)cn1 [CUDC-907]
[2]; [6]
  IC50: 1860 nM
[3]; [13]
  IC50: 3320 nM
[4]
  Score (safety): 0
  Score (PK): 0
P.falciparum Dd2
  IC50: 18 nM
HEK293T; [7]
  IC50: 30 nM
HepG2; [8]
  IC50: 3 nM
Human subjects; ref NCT02674750 (CUDC-907), NCT02795819 (AR-42)
  rate of life-threatening adverse events: > 25%

## CC(C)[C@H](C(=O)Nc1ccc(C(=O)NO)cc1)c1ccccc1 [AR-42]
[2]; [5]
  IC50: 1900 nM
[3]
  IC50: 1500 nM
[4]
  Score (safety): 0
  Score (PK): 0
Human subjects; human, in vivo
  rate of life-threatening adverse events: > 25%

## O=C(NO)c1cnc(N2C[C@@H]3[C@H](C2)[C@H]3NCc2ccc3cc(F)ccc3n2)nc1 [CHR-3996]
[2]; [6]
  IC50: 7230 nM
[3]; [13]
  IC50: 70 nM
[4]
  Score (safety): 0
  Score (PK): 0
P.falciparum Dd2
  IC50: 15 nM
HEK293T
  IC50: 728 nM
HepG2
  IC50: 127 nM

## CN(C)Cc1c(C(=O)NCCOc2ccc(C(=O)NO)cc2)oc2ccccc12 [Abexinostat]
[2]; [6]
  IC50: 640 nM
[3]; [13]
  IC50: 2000 nM
[4]
  Score (safety): 0
  Score (PK): 0
Human subjects; human, in vivo
  patients with significant adverse events: more than 15%
